Results on 29 molecules are retold here after patent publication US9561231B2 (AbbVie Inc., priority 2012, dated 2017).

The structures appear in SMILES notation. Read-outs that look alike come from different tables or passages of the source.

The target of experiment [1] is T1, second (BD2: amino acids E352-E168) bromodomain of BRD4 (Homo sapiens, UniProt O60885).
T1 construct: protocol
Description: TR-FRET bromodomain binding assay, BRD4 BD2. The note with it: Ki calculated from IC50, probe Kd and probe concentration, read-out: TR-FRET Binding Ki: BRD4 (BDII_E352-M457). In outline: (§1)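 His-tagged BRD4 BD1 (K57-E168) or BD2 ([…]) displacing an Alexa647-labelled BET-inhibitor probe in 20 mM sodium phosphate pH 6.0, 50 mM NaCl, 1 mM EDTA, 0.01% Triton X-100, 1 mM DTT.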

In experiment [2] the target is T2, first (BD1: amino acids K57-E168) bromodomain of BRD4 (Homo sapiens, UniProt O60885).
T2 construct: His-tagged first (BD1: amino acids K57-E168)
Description: TR-FRET bromodomain binding assay, BRD4 BD1. The note with it: Ki calculated from IC50, probe Kd and probe concentration, read-out: TR-FRET Binding Ki: BRD4 (BDI_K57-E168). In outline:
as §1

[3] abbreviates: TR-FRET assay protocol (A-G, compound concentration range).
Setting [4] is: TR-FRET assay protocol (D, E or G) per compound.

In general, Ki refers to the equilibrium dissociation constant of an inhibitor or competing ligand from its target. For `Cn1nc(-c2ccccc2Oc2ccccc2)c(-c2cnn(CCN3CCOCC3)c2)cc1=O` [Example 172, 2-methyl-5-{1-[2-(morpholin-4-yl)ethyl]-1H-pyrazol-4-yl}-6-(2-phenoxyphenyl)pyridazin-3(2H)-one], the Ki was 593 nM in experiment [1] (setting [3]) and 572 nM in experiment [2] (setting [3]).
Take `CCOc1cc(=O)n(C)cc1-c1cc(NC(=O)CC(C)(C)C)ccc1Oc1ccc(F)cc1F` [Example 296, N-[4-(2,4-difluorophenoxy)-3-(4-ethoxy-1-methyl-6-oxo-1,6-dihydropyridin-3-yl)phenyl]-3,3-dimethylbutanamide]: the inhibition constant (Ki) was 104 nM in experiment [1] (setting [3]) and 195 nM in experiment [2] (setting [3]).
Regarding `CCN(CC)C(=O)c1cc(-c2cc(=O)n(C)nc2-c2ccccc2Oc2ccccc2)ccc1F` [Example 181, N,N-diethyl-2-fluoro-5-[1-methyl-6-oxo-3-(2-phenoxyphenyl)-1,6-dihydropyridazin-4-yl]benzamide], the Ki was 6160 nM in experiment [1] (setting [3]) and 3950 nM in experiment [2] (setting [3]).
As for `CCS(=O)(=O)c1ccc(OCC2CC2)c(-c2cc(NC(C)=O)c(=O)n(C)c2)c1` [Example 361, N-{5-[2-(cyclopropylmethoxy)-5-(ethylsulfonyl)phenyl]-1-methyl-2-oxo-1,2-dihydropyridin-3-yl}acetamide], the Ki in experiment [1] (setting [3]) is 1170 nM; in experiment [2] (setting [3]) it was 600 nM.
Regarding `CCOc1cc(=O)n(C)cc1-c1cc(NC(=O)c2ccccc2CCc2ccccc2)ccc1Oc1ccc(F)cc1F` [Example 302, N-[4-(2,4-difluorophenoxy)-3-(4-ethoxy-1-methyl-6-oxo-1,6-dihydropyridin-3-yl)phenyl]-2-(2-phenylethyl)benzamide], the inhibition constant Ki was 47.2 nM in experiment [1] (setting [3]) and 209 nM in experiment [2] (setting [3]).
As for `Cc1ccc(-c2cc(=O)n(C)nc2-c2ccccc2Oc2ccccc2)cn1` [Example 196, 2-methyl-5-(6-methylpyridin-3-yl)-6-(2-phenoxyphenyl)pyridazin-3(2H)-one], the Ki in experiment [1] (setting [3]) was 670 nM; in experiment [2] (setting [3]) it was 1080 nM.
Regarding `CCOc1cc(=O)n(C)cc1-c1cc(NC(=O)c2cnc(C)cn2)ccc1Oc1ccc(F)cc1F` [Example 414, N-[4-(2,4-difluorophenoxy)-3-(4-ethoxy-1-methyl-6-oxo-1,6-dihydropyridin-3-yl)phenyl]-5-methylpyrazine-2-carboxamide], the Ki is 38.9 nM in experiment [1] (setting [4]) and 61.4 nM in experiment [2] (setting [4]).
`CN(C)CCCNC(=O)c1ccc(-c2cc(=O)n(C)nc2-c2ccccc2Oc2ccccc2)cc1` [Example 150, N-[3-(dimethylamino)propyl]-4-[1-methyl-6-oxo-3-(2-phenoxyphenyl)-1,6-dihydropyridazin-4-yl]benzamide]: the Ki in experiment [1] (setting [3]) is 411 nM; in experiment [2] (setting [3]), 471 nM.
`COc1cc(=O)n(C)nc1-c1ccccc1OCCC1CCCCC1` [Example 42, 6-[2-(2-cyclohexylethoxy)phenyl]-5-methoxy-2-methylpyridazin-3(2H)-one]: the Ki in experiment [1] (setting [3]) was greater than 22200 nM; in experiment [2] (setting [3]), greater than 12600 nM.
As to `CCOc1cc(=O)n(C)cc1-c1cc(NS(=O)(=O)c2ccc(C(C)(C)C)cc2)ccc1Oc1ccc(F)cc1F` [Example 416, 4-tert-butyl-N-[4-(2,4-difluorophenoxy)-3-(4-ethoxy-1-methyl-6-oxo-1,6-dihydropyridin-3-yl)phenyl]benzenesulfonamide], the Ki in experiment [1] (setting [4]) is 281 nM; in experiment [2] (setting [4]) it was 493 nM.
With `CC(=O)N1CCC(c2cc(=O)n(C)nc2-c2ccccc2Oc2ccccc2)CC1` [Example 89, 5-(1-acetylpiperidin-4-yl)-2-methyl-6-(2-phenoxyphenyl)pyridazin-3(2H)-one], the results for the inhibitory constant (Ki) in experiment [1] (setting [3]) and in experiment [2] (setting [3]) were 3890 nM and 8100 nM, respectively.
Turning to `CCn1cc(-c2cc(=O)n(C)nc2-c2ccccc2Oc2ccccc2)cn1` [Example 212, 5-(1-ethyl-1H-pyrazol-4-yl)-2-methyl-6-(2-phenoxyphenyl)pyridazin-3(2H)-one], the results for the Ki in experiment [1] (setting [3]) and in experiment [2] (setting [3]) were 117 nM and 89.8 nM, respectively.
In the same order, the values of `CCO/C=C\c1cc(=O)n(C)cc1-c1cc(S(C)(=O)=O)ccc1NCC1CC1` [Example 337, 5-{2-[(cyclopropylmethyl)amino]-5-(methylsulfonyl)phenyl}-4-[(Z)-2-ethoxyethenyl]-1-methylpyridin-2(1H)-one] are 1830 nM and 611 nM.
As to `CC(C)Cn1cc(-c2cc(=O)n(C)nc2-c2ccccc2Oc2ccccc2)cn1` [Example 206, 2-methyl-5-[1-(2-methylpropyl)-1H-pyrazol-4-yl]-6-(2-phenoxyphenyl)pyridazin-3(2H)-one], the Ki in experiment [1] (setting [3]) is 672 nM; in experiment [2] (setting [3]) it was 412 nM.
Regarding `CCN(CC)C(=O)c1cc(F)cc(-c2cc(=O)n(C)nc2-c2ccccc2Oc2ccccc2)c1` [Example 167, N,N-diethyl-3-fluoro-5-[1-methyl-6-oxo-3-(2-phenoxyphenyl)-1,6-dihydropyridazin-4-yl]benzamide], the values for the Ki in experiment [1] (setting [3]) and in experiment [2] (setting [3]) were 7370 nM and 5430 nM, respectively.
On to `CCOc1cc(=O)n(C)cc1-c1cc(NC(=O)C2CCN(c3ccccc3)C2=O)ccc1Oc1ccc(F)cc1F` (stereo not shown) [Example 295, N-[4-(2,4-difluorophenoxy)-3-(4-ethoxy-1-methyl-6-oxo-1,6-dihydropyridin-3-yl)phenyl]-2-oxo-1-phenylpyrrolidine-3-carboxamide], for which the inhibition constant Ki in experiment [1] (setting [3]) was 93 nM; in experiment [2] (setting [3]), 275 nM.
Turning to `CNC(=O)c1cncc(-c2cc(=O)n(C)nc2-c2ccccc2Oc2ccccc2)c1` [Example 122, N-methyl-5-[1-methyl-6-oxo-3-(2-phenoxyphenyl)-1,6-dihydropyridazin-4-yl]pyridine-3-carboxamide], the inhibitory constant (Ki) in experiment [1] (setting [3]) was 4520 nM; in experiment [2] (setting [3]), 8560 nM.
As to `CN1CCN(c2cc(=O)n(C)nc2-c2ccccc2Oc2ccccc2)CC1=O` [Example 51, 2-methyl-5-(4-methyl-3-oxopiperazin-1-yl)-6-(2-phenoxyphenyl)pyridazin-3(2H)-one], the inhibition constant (Ki) was 6600 nM in experiment [1] (setting [3]) and 11600 nM in experiment [2] (setting [3]).
Consider `COc1cc(=O)n(C)nc1-c1ccccc1Oc1cccc(F)c1` [Example 36, 6-[2-(3-fluorophenoxy)phenyl]-5-methoxy-2-methylpyridazin-3(2H)-one], for which the inhibition constant Ki in experiment [1] (setting [3]) is 4430 nM; in experiment [2] (setting [3]), 5060 nM.
As to `COc1cc(=O)n(C)nc1-c1ccccc1OCc1ccncc1` [Example 45, 5-methoxy-2-methyl-6-[2-(pyridin-4-ylmethoxy)phenyl]pyridazin-3(2H)-one], the Ki in experiment [1] (setting [3]) was greater than 11100 nM; in experiment [2] (setting [3]), greater than 5670 nM.
`CC(C)COc1cccc(-c2cc(=O)n(C)nc2-c2ccccc2Oc2ccccc2)c1` [Example 110, 2-methyl-5-[3-(2-methylpropoxy)phenyl]-6-(2-phenoxyphenyl)pyridazin-3(2H)-one]: the Ki in experiment [1] (setting [3]) was 13500 nM; in experiment [2] (setting [3]), greater than 13000 nM.
Take `CN(C)c1cncc(-c2cc(=O)n(C)nc2-c2ccccc2Oc2ccccc2)c1` [Example 216, 5-[5-(dimethylamino)pyridin-3-yl]-2-methyl-6-(2-phenoxyphenyl)pyridazin-3(2H)-one]: the inhibitory constant (Ki) in experiment [1] (setting [3]) is 462 nM; in experiment [2] (setting [3]) it was 719 nM.
Turning to `CCOc1cncc(-c2cc(=O)n(C)nc2-c2ccccc2Oc2ccccc2)c1` [Example 190, 5-(5-ethoxypyridin-3-yl)-2-methyl-6-(2-phenoxyphenyl)pyridazin-3(2H)-one], the figures for the inhibition constant (Ki) in experiment [1] (setting [3]) and in experiment [2] (setting [3]) were 2420 nM and 6560 nM, respectively.
As to `Cn1nc(-c2ccccc2Oc2ccccc2)c(-c2cccc(C(=O)N3CCOCC3)c2)cc1=O` [Example 175, 2-methyl-5-[3-(morpholin-4-ylcarbonyl)phenyl]-6-(2-phenoxyphenyl)pyridazin-3(2H)-one], the inhibitory constant (Ki) in experiment [1] (setting [3]) was 2490 nM; in experiment [2] (setting [3]) it was 2950 nM.
`COc1cc(=O)n(C)nc1-c1ccccc1OC1CCCCC1` [Example 39, 6-[2-(cyclohexyloxy)phenyl]-5-methoxy-2-methylpyridazin-3(2H)-one]: the values for the inhibition constant (Ki) in experiment [1] (setting [3]) and in experiment [2] (setting [3]) were 14600 nM and 3540 nM, respectively.
For the molecule `CCOC(=O)N1CCC(Oc2ccc(NS(=O)(=O)CC)cc2-c2cn(C)c(=O)cc2OCC)CC1` [Example 388, ethyl 4-{2-(4-ethoxy-1-methyl-6-oxo-1,6-dihydropyridin-3-yl)-4-[(ethylsulfonyl)amino]phenoxy}piperidine-1-carboxylate], the inhibition constant Ki in experiment [1] (setting [4]) is 1420 nM; in experiment [2] (setting [4]), 766 nM.
In the case of `Cc1nnc(-c2cccc(-c3cc(=O)n(C)nc3-c3ccccc3Oc3ccccc3)c2)o1` [Example 176, 2-methyl-5-[3-(5-methyl-1,3,4-oxadiazol-2-yl)phenyl]-6-(2-phenoxyphenyl)pyridazin-3(2H)-one], the results for the inhibition constant (Ki) in experiment [1] (setting [3]) and in experiment [2] (setting [3]) were 2080 nM and 3660 nM, respectively.
With `Cn1nc(-c2ccccc2Oc2ccccc2)c(-c2ccc(N3CCOCC3)nc2)cc1=O` [Example 179, 2-methyl-5-[6-(morpholin-4-yl)pyridin-3-yl]-6-(2-phenoxyphenyl)pyridazin-3(2H)-one], the Ki in experiment [1] (setting [3]) was 488 nM; in experiment [2] (setting [3]), 923 nM.
On to `CN(C)CCCNC(=O)c1cccc(-c2cc(=O)n(C)nc2-c2ccccc2Oc2ccccc2)c1` [Example 163, N-[3-(dimethylamino)propyl]-3-[1-methyl-6-oxo-3-(2-phenoxyphenyl)-1,6-dihydropyridazin-4-yl]benzamide], for which the figures for the inhibitory constant (Ki) in experiment [1] (setting [3]) and in experiment [2] (setting [3]) were 366 nM and 1990 nM, respectively.
